According to patent US9199965B2, “Benzoimidazole derivatives and pharmaceutical composition comprising the same” (Daewoong Co., Ltd., priority 2005, dated 2015):

Target: T1, human vanilloid-1 (hVR1) (Homo sapiens, UniProt Q8NER1)
T1 construct: expressed in transfected cells; host or cells: HEK293 Tet-on (hVR1-HEK293), doxycycline-induced
Assay: Calcium influx of vanilloid receptor in hVR1-HEK293 cells (capsaicin-induced, Fluo-3/AM)
Assay type: cell-based
Settings: 1 μM capsaicin-induced intracellular calcium influx, read-out: Inhibitory Activity IC50
Protocol: Experiments for calcium influx were performed to measure the activity of the compounds as antagonists.
The cell strain hVR1-HEK293 is the human embryonic kidney (HEK) 293 Tet-on cell transfected with a human vanilloid-1 gene (pTRE2hyg-hVR1, 7.8 kb), which is capable of controlling the expression of VR1 according to the administration of deoxycycline, a tetracycline derivative analog. In a medium supplemented with deoxycycline two days before calcium influx experiments, the cell strain was cultured to induce the expression of VR1. After being grown to a confluency of about 80% in T75 flasks, hVR1-HEK293 was detached from the flask using trypsin. Cells harvested by centrifugation were suspended in a medium supplemented with 1 μg/mL of deoxycycline and diluted to a density of 2-4×10^5 cells/mL, after which a 100 μL aliquot of the cell suspension was added to each well of 96 well black plates. Before the measurement of calcium influx, the cells were incubated for two days at 37° C. in a 5% CO2 incubator.
For use in calcium influx experiments, each compound was dissolved in dimethyl sulfoxide (DMSO).
To measure an intracellular calcium influx, cells were incubated at 37° C. for 90 min in a medium containing the calcium indicator Fluo-3/AM so as to allow the fluorescent dye to penetrate into the cells. Then, the cells were washed three times with D-PBS (Dulbecco's phosphate buffered saline) containing 10 mM HEPES to remove the fluorescent dye which remained outside. 193 μL aliquot of D-PBS was added to each well, followed by the addition of various concentrations of compounds thereto. In order to measure the antagonistic activity of the compounds, calcium influx was induced by treatment with 1 μM capsaicin. The inhibitory effect of each compound on 1 μM capsaicin-induced intracellular calcium influx according to compound concentration was measured using a fluorescent analyzer and the data thus obtained were analyzed on the basis of the Hill's equation.

T1 sequence (Q8NER1 whole entry): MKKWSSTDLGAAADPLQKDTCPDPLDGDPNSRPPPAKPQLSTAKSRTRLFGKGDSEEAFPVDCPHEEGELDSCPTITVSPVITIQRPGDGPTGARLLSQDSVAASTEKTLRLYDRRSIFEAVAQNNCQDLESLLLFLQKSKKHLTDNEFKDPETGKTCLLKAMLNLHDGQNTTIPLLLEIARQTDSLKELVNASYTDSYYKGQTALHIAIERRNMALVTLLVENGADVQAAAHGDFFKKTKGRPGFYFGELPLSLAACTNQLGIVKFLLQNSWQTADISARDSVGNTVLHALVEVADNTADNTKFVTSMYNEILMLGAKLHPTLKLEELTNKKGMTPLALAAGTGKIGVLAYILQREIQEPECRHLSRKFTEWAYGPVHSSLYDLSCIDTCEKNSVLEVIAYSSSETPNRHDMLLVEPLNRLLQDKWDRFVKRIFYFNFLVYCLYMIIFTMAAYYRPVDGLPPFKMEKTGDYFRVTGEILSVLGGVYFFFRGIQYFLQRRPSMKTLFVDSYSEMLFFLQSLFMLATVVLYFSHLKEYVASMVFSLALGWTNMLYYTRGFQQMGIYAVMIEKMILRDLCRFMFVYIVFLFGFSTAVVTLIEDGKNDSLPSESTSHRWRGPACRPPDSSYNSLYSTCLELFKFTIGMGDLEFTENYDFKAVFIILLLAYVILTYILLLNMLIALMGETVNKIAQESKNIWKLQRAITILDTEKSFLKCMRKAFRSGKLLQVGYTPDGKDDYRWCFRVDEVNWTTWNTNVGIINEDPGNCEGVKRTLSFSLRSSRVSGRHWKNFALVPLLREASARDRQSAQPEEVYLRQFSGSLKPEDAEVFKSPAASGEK

Row | Compound | IC50 [nM]
1 | Clc1cccnc1-c1ccc(-c2nc3ccc(Br)cc3[nH]2)cc1 [Compound 13, 6-bromo-2-(4-(3-chloropyridin-2-yl)phenyl)-1H-benzoimidazole] | 289
2 | FC(F)(F)c1cc(Br)c2nc(-c3ccc(-c4ncccc4Cl)cc3)[nH]c2c1 [Compound 14, 4-bromo-2-(4-(3-chloropyridin-2-yl)phenyl)-6-(trifluoromethyl)-1H-benzoimidazole] | 168
3 | FC(F)(F)c1cccnc1-c1ccc(-c2nc3cc(Cl)c(Cl)cc3[nH]2)cc1 [Compound 35, 5,6-dichloro-2-[4-(3-trifluoromethylpyridin-2-yl)phenyl]-1H-benzoimidazole] | 39
4 | Fc1ccc2nc(-c3ccc(-c4ncccc4C(F)(F)F)cc3)[nH]c2c1 [Compound 38, 6-fluoro-2-(4-(3-(trifluoromethyl)pyridin-2-yl)phenyl)-1H-benzoimidazole] | 454
5 | FC(F)(F)c1cccnc1-c1ccc(-c2nc3ncc(Br)cc3[nH]2)cc1 [Compound 39] | 19
6 | CC(C)(C)c1ccc2nc(-c3ccc(-c4ccccn4)cc3)[nH]c2c1 [Compound 47, 6-tert-butyl-2-(4-pyridin-2-ylphenyl)-1H-benzoimidazole] | 82
7 | FC(F)(F)c1ccc2nc(-c3ccc(-c4ccccn4)cc3)[nH]c2c1 [Compound 48, 6-(trifluoromethyl)-2-(4-(pyridin-2-yl)phenyl)-1H-benzoimidazole] | 160
8 | FC(F)(F)c1cc(Cl)c2nc(-c3ccc(-c4ccccn4)cc3)[nH]c2c1 [Compound 49, 4-chloro-6-(trifluoromethyl)-2-(4-(pyridin-2-yl)phenyl)-1H-benzoimidazole] | 284
9 | Clc1cc2nc(-c3ccc(-c4ccccn4)cc3)[nH]c2cc1Cl [Compound 50, 5,6-dichloro-2-(4-(pyridin-2-yl)phenyl)-1H-benzoimidazole] | 292
10 | FC(F)(F)c1cc(C(F)(F)F)c2nc(-c3ccc(-c4ccccn4)cc3)[nH]c2c1 [Compound 51, 4,6-bis(trifluoromethyl)-2-(4-(pyridin-2-yl)phenyl)-1H-benzoimidazole] | 246
11 | Fc1ccc2nc(-c3ccc(-c4ccccn4)cc3)[nH]c2c1 [Compound 52, 6-fluoro-2-(4-(pyridin-2-yl)phenyl)-1H-benzoimidazole] | 1400
12 | Brc1cnc2nc(-c3ccc(-c4ccccn4)cc3)[nH]c2c1 [Compound 53, 6-bromo-2-(4-(pyridin-2-yl)phenyl)-1H-imidazo[4,5-b]pyridine] | 145
13 | FC(F)(F)c1cc(Br)c2nc(-c3ccc(-c4nccc(C(F)(F)F)n4)cc3)[nH]c2c1 [Compound 56, 4-bromo-6-(trifluoromethyl)-2-(4-(4-(trifluoromethyl)pyrimidin-2-yl)phenyl)-1H-benzoimidazole] | 22
14 | CC(C)(C)c1ccc2nc(-c3ccc(-c4ncccn4)cc3)[nH]c2c1 [Compound 58, 6-tert-butyl-2-(4-(pyrimidin-2-yl)phenyl)-1H-benzoimidazole] | 145
15 | N#Cc1cccnc1-c1ccc(-c2nc3ccc(C(F)(F)F)cc3[nH]2)cc1 [Compound 59, 2-(4-(6-(trifluoromethyl)-1H-benzoimidazole-2-yl)phenyl)pyridin-3-carbonitrile] | 296
16 | CC(C)(C)c1ccc2nc(-c3ccc(-c4ncccc4C#N)cc3)[nH]c2c1 [Compound 60] | 150
17 | CC(C)(C)c1ccc2nc(-c3ccc(-c4ccccn4)cc3F)[nH]c2c1 [Compound 82, 6-tert-butyl-2-(2-fluoro-4-pyridin-2-yl)phenyl-1H-benzoimidazole] | 263

Row | Compound | IC50 [nM]
18 | FC(F)(F)c1ccc2nc(-c3ccc(-c4ncccc4C(F)(F)F)cc3Cl)[nH]c2c1 [Compound 97, 2-[2-chloro-4-(3-trifluoromethylpyridin-2-yl)phenyl]-6-trifluoromethyl-1H-benzoimidazole] | 644
19 | FC(F)(F)c1cc(C(F)(F)F)c2nc(-c3ccc(-c4ncccc4Cl)c4ccccc34)[nH]c2c1 [Compound 106, 2-[4-(3-chloropyridin-2-yl)naphthalen-1-yl]-4,6-bistrifluoromethyl-1H-benzoimidazole] | 275
20 | FC(F)(F)c1ccc2nc(-c3ccc(-c4ncccc4C(F)(F)F)c4ccccc34)[nH]c2c1 [Compound 113, 6-trifluoromethyl-2-[4-(3-trifluoromethylpyridin-2-yl)naphthalen-1-yl]-1H-benzoimidazole] | 363
21 | Clc1cc2nc(-c3ccc(-c4ccccn4)c(Cl)c3)[nH]c2cc1Cl [Compound 129, 5,6-dichloro-2-(3-chloro-4-(pyridin-2-yl)phenyl)-1H-benzoimidazole] | 3960
22 | Clc1cc(-c2nc3ccc(Br)cc3[nH]2)ccc1-c1ccccn1 [Compound 130, 6-bromo-2-(3-chloro-4-(pyridin-2-yl)phenyl)-1H-benzoimidazole] | 436
23 | FC(F)(F)c1ccc2nc(-c3ccc(-c4ncccc4Cl)cn3)[nH]c2c1 [Compound 136, 3-chloro-6′-(6-trifluoromethyl-1H-benzoimidazole-2-yl)-[2,3′]bipyridine] | 952
24 | Clc1ccc2nc(-c3ccc(-c4ncccc4Cl)cn3)[nH]c2c1 [Compound 137, 3-chloro-6′-(6-chloro-1H-benzoimidazole-2-yl)-[2,3′]bipyridine] | 569
25 | FC(F)(F)c1cc(Br)c2nc(-c3ccc(-c4ncccc4Cl)cn3)[nH]c2c1 [Compound 140, 4-bromo-2-(5-(3-chloropyridin-2-yl)pyridin-2-yl)-6-(trifluoromethyl)-1H-benzoimidazole] | 66
26 | Clc1cccnc1-c1ccc(-c2nc3ccc(Br)cc3[nH]2)nc1 [Compound 141, 6-bromo-2-(5-(3-chloropyridin-2-yl)pyridin-2-yl)-1H-benzoimidazole] | 2400
27 | CC(C)(C)c1ccc2nc(-c3ccc(-c4ncccc4C(F)(F)F)cn3)[nH]c2c1 [Compound 159, 6′-(6-tert-butyl-1H-benzoimidazole-2-yl)-3-trifluoromethyl-[2,3′]bipyridine] | 3950
28 | FC(F)(F)c1cccnc1-c1ccc(-c2nc3ccc(Cl)cc3[nH]2)nc1 [Compound 160, 6′-(6-chloro-1H-benzoimidazole-2-yl)-3-trifluoromethyl-[2,3′]bipyridine] | 258
29 | Fc1ccc2nc(-c3ccc(-c4ncccc4C(F)(F)F)cn3)[nH]c2c1 [Compound 166, 6-fluoro-2-(5-(3-(trifluoromethyl)pyridin-2-yl)pyridin-2-yl)-1H-benzoimidazole] | 3900
30 | Clc1cc2nc(-c3ccc(-c4ccccn4)cn3)[nH]c2cc1Cl [Compound 173, 5,6-dichloro-2-(5-(pyridin-2-yl)pyridin-2-yl)-1H-benzoimidazole] | 46
31 | CC(C)(C)c1ccc2nc(-c3ccc(-c4cccc5ccccc45)nc3)[nH]c2c1 [Compound 174, 6-tert-butyl-2-(6-naphthalen-1-ylpyridin-3-yl)-1H-benzoimidazole] | 282
32 | FC(F)(F)c1ccc2nc(-c3ccc(-c4cccc5ccccc45)nc3)[nH]c2c1 [Compound 176, 6-(trifluoromethyl)-2-(6-(naphthalen-1-yl)pyridin-3-yl)-1H-benzoimidazole] | 229
33 | Clc1ccc2nc(-c3ccc(-c4cccc5ccccc45)nc3)[nH]c2c1 [Compound 177, 6-chloro-2-(6-(naphthalen-1-yl)pyridin-3-yl)-1H-benzoimidazole] | 151
